Legend:
[1] = test system: antibodies against 14,15-DHET; test: 14,15-DHET solid phase competitive ELISA, specificity; assay type: binding, goat; conditions: 14,15-DHET ELISA, panel of eicosanoids
Protocol: (§1) High-binding microplates were coated with protein G-purified IgG suspended in 1 M carbonate, pH 9.01 (10 μg/well; 200 μL/well final volume) and then covered with parafilm. After overnight incubation at room temperature, the welts were gently washed five times with tris buffered saline (TBS), pH 7.5, containing 0.1% tween. Non-specific sites were blocked by the addition of 0.2 mL of 5% (w/v) nonfat dry milk in TBS. After 2 hours of incubation at room temperature, they were washed three times with TBS-tween.
(§2) Standards were serially diluted with TBS (100 μL). The diluted samples (100 μL) were added to the IgG-coated plate. Approximately 50 ng of the DHET HRP conjugates were diluted with HRP-dilution buffer (100 μL) and added to the well. Following incubation for 2 hours to permit competitive binding of the molecules to the antibody, unbound material was removed by thorough washing of the wells with TBS-tween, and 150 μL of a calorimetric substrate for HRP [3,3′,5,5′ tetramethylbenzidine (TMB) and hydrogen peroxide] (Sigma Co.) was added. The plate is then incubated for 30 min, the reaction stopped by addition of 75 μL of 1 N H2SO4, and the absorbance at 450 nm was measured using a microtiter plate reader. Under these assay conditions, the amount of color in a well is inversely proportional to the initial concentration of the sample or the standard ligand.
(§3) The specificity of the 14,15-DHET ELISA was investigated using authentic DHET and a panel of eicosanoids which, based on their structure, might be anticipated to compete with 14,15-DHET for binding to antibodies against 14,15-DHET.
(§4) In a typical standard graph for 14,15-DHET, the r2 value for the fit of the data to an equation describing an inverse logarithmic relationship of free 14,15-DHET to B/Bo was usually higher than 0.96. The detection limits for 14,15- and 11,12-DHET with ELISAwere ˜1 pg.

11,12-DHET IgG = test: 11,12-DHET solid phase competitive ELISA, specificity; assay type: binding, goat; conditions: 11,12-DHET ELISA, authentic DHETs
Protocol: as §1, §2, §3, §4

[2] = Form-specific antibody production / specificity of anti-14,15-, 11,12-, 8,9- and 5,6-DHETs; assay type: binding; conditions: DHET coupled to KLH, goat immunized
Protocol: Synthetic 14,15-, 11,12- or 8,9-DHETs were coupled to KLH using dicyclohexylcarbodiimide (DCC) as previously described (10). The 5,6-DHET with COOH at C1 blocked by NH3 to prevent lactone formation were coupled to KLH using 1-ethyl-3-(3-dimethylaminopropyl)carbodiimide hydrochloride (EDC) according to the manufacturer's instruction (Pierce Biotechnology, Rockford, Ill).
The conjugate was used to immunize a goat and antibody titers were determined by ELISA using the DHET-conjugated bovine serum albumin (BSA).
as §3
(§5) The specificity of the antibody developed against 14,15-DHET was further investigated utilizing slot blot analysis. The 14,15-DHET conjugated BSA, BSA alone and 8,9-DHET conjugated to BSA were blotted onto cellulose membrane. Slot blot analysis was carried out with anti-14,15-DHET. […] Anti-8,9-DHET cross-reacted with both 8,9- and 14,15-DHETs.

Anti-8,9-DHET = test: Cross-reaction of anti-8,9-DHET; assay type: binding, goat
Protocol: as §5

[3] = test system: ethanol-esterified 13-HODE IgG; test: Competitive ELISA with HRP conjugated with ethanol-esterified 13-HODE; assay type: binding, goat; conditions: plate coated with the IgG, various concentrations
Protocol: FIG. 6 is a graph showing a competitive ELISA carried out with various concentrations of BSA and 13-HODE ethyl ester conjugated BSA to show cross-reactivity of the antibody to the 13-HODE ethyl ester.
A competitive ELISA using a plate coated with the IgG was carried out with various concentrations of BSA conjugated with ethanol-esterified 13-HODE and HRP conjugated with ethanol-esterilied 13-HODE. A negative control for this ELISA was BSA.
ELISA was carried out with serially diluted BSA or ethyl ester of 13-HODE-conjugated BSA and ˜50 ng/100 μl of the ethyl ester of 13-HODE HRP conjugates as described in Example 1.

Structure (SMILES) | cross-reaction with anti-14,15-DHET [1] | further results
CCCCC[C@H](O)/C=C/C=C\C/C=C\C=C\[C@@H](O)CCCC(=O)O [5(s)15(S)DiHETE] | did not cross-react | 
CCCCC/C=C\C/C=C\C/C=C\CC(O)C(O)CCCC(=O)O (stereo not shown) [5,6-DHET] | did not cross-react | cross-reaction with 11,12-DHET IgG (11,12-DHET IgG): didn't cross-react; form-specific antibody production [2]: failed
CCCCC/C=C\C/C=C\C/C=C\CC1OC1CCCC(=O)O (stereo not shown) [5,6-EET] | did not cross-react | 
CCCCC[C@H](O)/C=C/[C@@H]1[C@@H](CC(=O)CCCCC(=O)O)[C@@H](O)C[C@H]1O [6-keto-PGF1a] | did not cross-react | 
CCCCC/C=C\C/C=C\CC(O)C(O)C/C=C\CCCC(=O)O (stereo not shown) [8,9-DHET] | minimal cross-reaction | cross-reaction with anti-8,9-DHET (Anti-8,9-DHET): cross-reacted; cross-reaction with 11,12-DHET IgG (11,12-DHET IgG): minimal cross-reaction; form-specific antibody production [2]: failed
CCCCC/C=C\C/C=C\CC1OC1C/C=C\CCCC(=O)O (stereo not shown) [8,9-EET] | did not cross-react | 
CCCCC/C=C\CC(O)C(O)C/C=C\C/C=C\CCCC(=O)O (stereo not shown) [11,12-DHET] | minimal cross-reaction | form-specific antibody production [2]: successful
CCCCC/C=C\C[C@H]1O[C@H]1C/C=C\C/C=C\CCCC(=O)O [11,12-EET] | did not cross-react | 
CCCCCC(O)C(O)C/C=C\C/C=C\C/C=C\CCCC(=O)O (stereo not shown) [14,15-DHET] |  | cross-reaction with anti-8,9-DHET (Anti-8,9-DHET): cross-reacted; cross-reaction with 11,12-DHET IgG (11,12-DHET IgG): minimal cross-reaction; form-specific antibody production [2]: successful
CCCCCC1OC1C/C=C\C/C=C\C/C=C\CCCC(=O)O (stereo not shown) [14,15-EET] | did not cross-react | 
CCCCC[C@H](O)/C=C/C=C\C/C=C\C/C=C\CCCC(=O)O [15(S)HETE] | did not cross-react | 
CCCCC/C=C\C/C=C\CCCCCCCC(=O)OCC [Ethanol-esterified linoleic acid, linoleic acid ethyl ester] |  | competition with ethanol-esterified 13-HODE-HRP conjugate for binding to the IgG [3]: competed with the HRP conjugated with ethanol-esterified 13-HODE in a dose-dependent manner
CCCCC[C@H](O)/C=C/[C@H]1[C@H](O)CC(=O)[C@@H]1C/C=C\CCCC(=O)O [PGE2] | did not cross-react | 
CCCCC[C@H](O)/C=C/[C@@H]1[C@@H](C/C=C\CCCC(=O)O)[C@@H](O)C[C@H]1O [PGF2a] | did not cross-react | 
CCCCC[C@H](O)/C=C/[C@H]1OC(O)C[C@H](O)[C@@H]1C/C=C\CCCC(=O)O (stereo partly shown) [Thromboxane B2] | did not cross-react | 
CCCCC/C=C\C/C=C\C/C=C\C/C=C\CCCC(=O)O [arachidonic acid] | did not cross-react | 
CCO [ethanol] |  | competition with ethanol-esterified 13-HODE-HRP conjugate for binding to the IgG [3]: competed with the HRP conjugated with ethanol-esterified 13-HODE in a dose-dependent manner

Source: patent US20070207503A1, “DETECTION OF ALCOHOL-ESTERIFIED FATTY ACIDS” (priority 2006, published 2007)
